Results from ChEMBL document CHEMBL2321687, “Identification of a novel arylpiperazine scaffold for fatty acid amide hydrolase inhibition with improved drug disposition properties” (Bioorg Med Chem Lett, 2013).
Activity calls are given as the source filed them. The calls are words filed in the database; no cut-off is given here.

Columns and labels:
[1] = target: T1, Fatty-acid amide hydrolase 1 (Homo sapiens, UniProt O00519); test: Inhibition of human FAAH using [3Hethanolamine]AEA as substrate incubated for 20 mins prior to substrate addition measured after 15 mins by beta counting analysis
T1 sequence (O00519 whole entry): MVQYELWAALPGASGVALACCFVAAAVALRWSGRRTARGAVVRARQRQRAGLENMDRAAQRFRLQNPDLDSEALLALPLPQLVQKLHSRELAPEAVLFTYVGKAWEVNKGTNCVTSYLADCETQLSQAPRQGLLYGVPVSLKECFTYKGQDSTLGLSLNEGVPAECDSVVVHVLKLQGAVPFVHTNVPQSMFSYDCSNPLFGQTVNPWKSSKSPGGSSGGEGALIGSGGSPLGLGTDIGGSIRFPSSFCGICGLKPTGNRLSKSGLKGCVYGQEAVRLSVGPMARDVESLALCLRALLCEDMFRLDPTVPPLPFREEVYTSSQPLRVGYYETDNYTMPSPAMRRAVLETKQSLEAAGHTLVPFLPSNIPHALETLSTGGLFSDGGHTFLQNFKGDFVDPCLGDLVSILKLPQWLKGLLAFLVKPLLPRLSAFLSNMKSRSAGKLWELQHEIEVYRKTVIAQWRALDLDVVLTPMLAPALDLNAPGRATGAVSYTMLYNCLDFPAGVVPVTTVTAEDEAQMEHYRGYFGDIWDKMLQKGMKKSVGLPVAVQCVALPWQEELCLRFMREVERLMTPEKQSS

[2] = target: Fatty-acid amide hydrolase 1 (Mus musculus) (UniProt O08914); test: Reversible noncompetitive inhibition of FAAH in mouse brain homogenate using [3Hethanolamine]AEA as substrate incubated for 20 mins prior to dialysis for 18 hrs followed by substrate addition measured after 15 mins; assay type: tissue-based
[3] = target: T2, Fatty-acid amide hydrolase 1 (Mus musculus, UniProt O08914); test: Inhibition of FAAH in mouse brain homogenate using [3Hethanolamine]AEA as substrate incubated for 20 mins prior to substrate addition measured after 15 mins by beta counting analysis; assay type: tissue-based
T2 sequence (O08914 whole entry): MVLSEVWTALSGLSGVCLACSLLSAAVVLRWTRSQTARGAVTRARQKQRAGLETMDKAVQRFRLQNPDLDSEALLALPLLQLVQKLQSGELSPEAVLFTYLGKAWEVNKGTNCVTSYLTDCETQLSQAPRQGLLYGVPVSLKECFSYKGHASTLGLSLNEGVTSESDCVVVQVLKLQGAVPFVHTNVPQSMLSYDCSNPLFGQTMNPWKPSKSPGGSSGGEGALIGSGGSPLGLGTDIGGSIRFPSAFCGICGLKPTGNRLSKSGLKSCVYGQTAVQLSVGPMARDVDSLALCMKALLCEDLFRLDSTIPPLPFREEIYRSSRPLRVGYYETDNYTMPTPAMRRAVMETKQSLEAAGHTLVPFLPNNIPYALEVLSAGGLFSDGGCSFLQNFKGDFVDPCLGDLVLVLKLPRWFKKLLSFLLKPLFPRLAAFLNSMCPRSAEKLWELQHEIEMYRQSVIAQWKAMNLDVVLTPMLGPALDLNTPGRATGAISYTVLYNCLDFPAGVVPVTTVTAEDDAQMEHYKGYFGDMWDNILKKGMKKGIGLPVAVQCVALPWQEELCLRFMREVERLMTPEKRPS

NC(=O)c1ccn(-c2cccc(N3CCN(CCCCCCc4ccccc4)CC3)c2)c1
IC50 [1]: > 1000 nM | inhibition [2]: Active | Ki [3]: 10 nM
